Measurements as given in patent publication US20220402872A1, “PHOTOPOLYMERIZABLE ANTIBACTERIAL MONOMER” (UNIVERSITA' DEGLI STUDI DI TRIESTE, priority 2019, published 2022).

What was measured:
Format in all cases: cell-based
S. mutans (ATCC 25175) [1] = assay: Determination of the minimum bactericidal concentration (MBC); conditions: Streptococcus mutans, ATCC25175; against S. Mutans
Protocol: (§1) A 20 mg/mL compound stock solution in BHI medium is prepared. In a 96-well plate, the compound solution is diluted serially (the concentration is halved at each step) to obtain the following final concentrations after addition of the bacteria suspension: 10 mg/mL; 5 mg/mL; 2.5 mg/mL; 1.25 mg/mL; 0.625 mg/mL; 0.31 mg/mL; 0.15 mg/mL; 0.08 mg/mL; 0.04 mg/mL; 0.02 mg/mL. Wells containing a mixture of penicillin and streptomycin antibiotics are used as a positive control. Compound-free medium is used as a growth control. A volume of bacterial suspension equal to 0.5*10^6 bacteria/mL is added to each well containing the compound and the controls. The dish is incubated at 37° C. for 24 hours. The lowest compound concentration at which no turbidity of the culture medium is evident is defined as MIC. For the calculation of MBC, aliquots equal to 50 μL are taken from the wells showing evident no turbidity of the medium and are plated on BHI agar plates for 48 hours. […] Bacterial suspensions taken from the positive control (growth medium only) and the negative control (growth medium with Ampicilin 100 μg/mL) are also seeded.
(§2) In order to test the antibacterial properties of the compounds prepared in Examples 1-8, on colonies of S. mutans (ATCC 25175), a bacterium commonly found in the human oral cavity, a test was set up to determine the minimum inhibitory concentration (MIC) and the minimum bactericidal concentration (MBC) according to the “Determination of minimum inhibitory concentration (MIC)” methods and “Determination of minimum bactericidal concentration (MBC)” described above.

S. mutans (ATCC 25175) [2] = assay: Determination of the minimum inhibitory concentration (MIC); conditions: Streptococcus mutans, ATCC25175; against S. Mutans
Protocol: (§3) A colony of bacterium taken from agar plate is inoculated in Brain Hearth Infusion medium (BHI) and grown overnight at 37° C. The next day, the bacteria are diluted in fresh medium containing the phenol red indicator, up to a density of 10^6 bacteria/mL.
(§4) A stock solution of 2 mg/mL of compound is prepared in BHI medium containing phenol red.
(§5) In a 96-well plate, the compound stock solution is diluted serially (the concentration is halved at each step) to obtain the following final concentrations after addition of the bacteria suspension: 1 mg/mL; 0.5 mg/mL; 0.25 mg/mL; 0.125 mg/mL; 0.065 mg/mL; 0.032 mg/mL; 0.016 mg/mL; 0.008 mg/mL; 0.004 mg/mL; 0.002 mg/mL; 0.001 mg/mL. A compound-free medium is used as a growth control. A volume of bacterial suspension equal to 0.5*10^6 bacteria/mL is added to each well containing the compound and the control. The dish is incubated at 37° C. for 24 hours. Bacterial growth in each well is detected by the phenol red, which turns from red to yellow following acidification of the medium induced by bacterial metabolism. The lowest concentration of the compound causing no evident color change corresponds to the MIC.
as §2

S. Mitis (ATCC 49456) [3] = assay: Determination of the minimum bactericidal concentration (MBC)
Protocol: as §1
(§6) The compounds according to Examples 1, 3, 5, 6, and 7 were tested on bacterial strains different from S. mutans with the same methods described above, obtaining the MIC and MBC values reported in Table 2.

S. Sanguis (ATCC 10556) [4] = assay: as above
Protocol: as §1, §6

E. coli (ATCC25922) [5] = assay: as above
Protocol: as §1, §6

S. Aureus (ATCC 25923) [6] = assay: as above
Protocol: as §1, §6

bacteria grown on agar = assay: Determination of bacterial inhibition - agar diffusion test of primer formulations; conditions: for zone of inhibition at 1 % strength: 1% by weight of compound; for zone of inhibition at 5 % strength: 5% by weight of compound; for zone of inhibition at 10 % strength: 10% by weight of compound
From the text: A test adapted from a commonly used method for determining the sensitivity of a bacterial strain to antibiotics in solution, known as Kirby-Bauer antibiotic testing or disc diffusion antibiotic sensitivity testing was used (Brown D F, Kothari D (1975), “Comparison of antibiotic discs from different sources”, J. Clin. Pathol. 28 (10): 779-83. Doi: 10.1136 /jcp.28.10.779). The test performed involves the use of discs imbued with a known concentration of the substance under examination that are placed on a layer of bacteria grown on agar. The diffusion of the bactericidal molecule from the disk into the agar causes the inhibition of bacterial growth in the area surrounding the disk itself where the molecule has spread with the formation of what are called zones of growth inhibition. The diameter of these inhibition zones (transparent circular regions in comparison to the bacterial film) is proportional to the antibacterial efficacy of the molecule to its concentration and to its diffusion ability in the medium.
The bactericidal properties of the compounds according to Examples 1, 3, 5, 6 and 7 were tested in various primer-type preparations, using the method “Bacterial inhibition determination-Agar diffusion test” described above. The disk soaked in the tested primer formulation without addition of compounds according to Examples 1, 3, 5, 6 and 7 was used as a negative reference.
For the tests, the following primer-type formulations were used, identified by the following codes: […]

S. Mitis (ATCC 49456) [7] = assay: Determination of the minimum inhibitory concentration (MIC); conditions: Streptococcus mitis, ATCC49456
Protocol: as §3, §4, §5, §6

S. Sanguis (ATCC 10556) [8] = assay: as above
Protocol: as §3, §4, §5, §6

E. coli (ATCC25922) [9] = assay: as above; conditions: Escherichia coli
Protocol: as §3, §4, §5, §6

S. Aureus (ATCC 25923) [10] = assay: as above; conditions: Staphylococcus aureus, ATCC25923
Protocol: as §3, §4, §5, §6

## C=C(C)C(=O)OCC[N+](C)(C)CCCCCCCCCCCC[N+](C)(C)CCOC(=O)C(=C)C [Example 2]
S. mutans (ATCC 25175) [1]
  MBC: 313 µg/mL
S. mutans (ATCC 25175) [2]
  MIC: 156 µg/mL

## C=C(C)C(=O)NCCC[N+](C)(C)CCCCCCCCCCCC[N+](C)(C)CCCNC(=O)C(=C)C.[Br-].[Br-] [Example 3]
S. Mitis (ATCC 49456) [3]
  MCB: 0.62 mg/mL
S. Sanguis (ATCC 10556) [4]
  MCB: 0.62 mg/mL
E. coli (ATCC25922) [5]
  MCB: 1.25 mg/mL
S. Aureus (ATCC 25923) [6]
  MCB: 1.25 mg/mL
Bacteria grown on agar; primer L1A
  zone of inhibition at 1 % strength: 8 mm
  zone of inhibition at 5 % strength: 11 mm
  zone of inhibition at 10 % strength: 13 mm
Bacteria grown on agar; primer L1B
  zone of inhibition at 1 % strength: 0 mm
  zone of inhibition at 5 % strength: 7 mm
  zone of inhibition at 10 % strength: 10 mm
Bacteria grown on agar; primer L2A
  zone of inhibition at 1 % strength: 6 mm
  zone of inhibition at 5 % strength: 7 mm
  zone of inhibition at 10 % strength: 10 mm
Bacteria grown on agar; primer L2B
  zone of inhibition at 1 % strength: 6 mm
  zone of inhibition at 5 % strength: 7 mm
  zone of inhibition at 10 % strength: 10 mm
Bacteria grown on agar; primer R5A
  zone of inhibition at 1 % strength: 6 mm
  zone of inhibition at 5 % strength: 6 mm
  zone of inhibition at 10 % strength: 8 mm
Bacteria grown on agar; primer R5B
  zone of inhibition at 1 % strength: 0 mm
  zone of inhibition at 5 % strength: 0 mm
  zone of inhibition at 10 % strength: 8 mm
S. mutans (ATCC 25175) [1]
  MBC: 310 µg/mL
S. mutans (ATCC 25175) [2]
  MIC: 150 µg/mL
S. Mitis (ATCC 49456) [7]
  MIC: 620 µg/mL
S. Sanguis (ATCC 10556) [8]
  MIC: 620 µg/mL
E. coli (ATCC25922) [9]
  MIC: 1250 µg/mL
S. Aureus (ATCC 25923) [10]
  MIC: 625 µg/mL

## C=C(C)C(=O)NCCC[N+](C)(C)CCCCCCCCCCCC[N+](C)(C)CCCNC(=O)C(=C)C.[F-].[F-] [Example 4]
S. mutans (ATCC 25175) [1]
  MBC: 156 µg/mL
S. mutans (ATCC 25175) [2]
  MIC: 156 µg/mL

## C=C(C)C(=O)OCC[N+](C)(C)Cc1ccc(C[N+](C)(C)CCOC(=O)C(=C)C)cc1.[Br-].[Br-] [Example 8]
S. mutans (ATCC 25175) [1]
  MBC: 2500 µg/mL
S. mutans (ATCC 25175) [2]
  MIC: 2500 µg/mL
